Test results from patent publication US20080009416A1, “THIAZOLIUM COMPOUNDS AND USES THEREOF” (Mycosol, Inc., priority 2004, published 2008).

Assays:
male Lewis rats = conditions: intrapleural with carrageenan, 4 hours
Experimental: Acute Anti-Inflammatory Activity in the 4HR Carrageenan Pleurisy Assay in Rats
The Acute Local Carrageenan Pleuritis Assay in Rats is an in vivo model to determine local acute anti-inflammatory activity of compounds based on inhibition of edema formation and neutrophil mobilization into the pleural cavity. In this assay, male Lewis rats of approximately 200 gms were utilized. A carrageenan solution (400 μg/ml) was prepared in water. The experimental compounds were mixed into the carrageenan solution. The carrageenan +/− compounds was injected intrapleurally 0.25 cc/rat. The rats were sacrificed four hours later. The pleural cavity was opened and measured and the exudate extracted. The pleural cavity was washed with 5 cc EDTA solution to capture pleural cells. The total WBCs in the wash were counted and recording. Next the compound inhibition of exudate volume and inflammatory cell influx wash determined. Every experiment included a positive (prednisolone) and negative control group.

Phytophthora infestans = format: cell-based; conditions: Phytophthora infestans (Tomato); 18° C., 7 days; growth reduced by at least 90% vs control, OD 405 nm
Pyrenophora teres = assay: Anti-Fungal Activity in Plant Relevant Molds In Vitro Microtitre Test; format: cell-based; conditions: Pyrenophora teres (Barley); 18° C., 7 days; growth reduced by at least 90% vs control, OD 405 nm
Experimental: (§1) Compounds III, IV and V were prepared and were subjected to Anti-Fungal Activity in Plant Relevant Molds In Vitro Microtitre Tests.
(§2) A stock solution of each compound was prepared in DMSO at a concentration of 10,000 ppm a.i. Further dilutions were prepared with water. The test was conducted at the following concentrations: 125, 31, 8, […], 0.5 and 0.125 ppm a.i. Spore suspensions of the fungi were prepared. The test was conducted in microtiter plates and for each fungus and each concentration, 3 wells were prepared. Incubation of the inoculated plates was carried out at 18° C. for 7 days. After this time, the optical density of the mycelium developed in each well was measured at 405 nm.
(§3) The data produced allowed an assessment of the IC 90 value (the concentration at which the fungal growth was reduced by at least 90% compared to the control).

Rhizoctonia solani = assay: as above; format: cell-based; conditions: Rhizoctonia solani (Rice Sheath); 18° C., 7 days; growth reduced by at least 90% vs control, OD 405 nm
Experimental: as §1, §2, §3

Cochliobolus mijabeanus = assay: as above; format: cell-based; conditions: Cochliobolus mijabeanus (Corn); 18° C., 7 days; growth reduced by at least 90% vs control, OD 405 nm
Experimental: as §1, §2, §3

Fusarium culmorum = assay: as above; format: cell-based; conditions: Fusarium culmorum (Wheat Head); 18° C., 7 days; growth reduced by at least 90% vs control, OD 405 nm
Experimental: as §1, §2, §3

Septonia tritici = assay: as above; format: cell-based; conditions: Septonia tritici (Wheat Leaf); 18° C., 7 days; growth reduced by at least 90% vs control, OD 405 nm
Experimental: as §1, §2, §3

Alternaria solani = assay: as above; format: cell-based; conditions: Alternaria solani (Potato); 18° C., 7 days; growth reduced by at least 90% vs control, OD 405 nm
Experimental: as §1, §2, §3

[1] = system: Colletotrichum lagenarium; assay: as above; format: cell-based; conditions: Colletotrichum lagenarium (Mellons); 18° C., 7 days; growth reduced by at least 90% vs control, OD 405 nm
Experimental: as §1, §2, §3

Botrytis cinerea = assay: as above; format: cell-based; conditions: Botrytis cinerea (Vegetable); 18° C., 7 days; growth reduced by at least 90% vs control, OD 405 nm
Experimental: as §1, §2, §3

Pyricularia oryzae = format: cell-based; conditions: Pyricularia oryzae (Rice); 18° C., 7 days; growth reduced by at least 90% vs control, OD 405 nm

## Cc1scc(-c2ccc(C3CCCCC3)cc2)[n+]1C.[I-] [2,3-dimethyl-4(p-cyclohexylphenyl) thiazolium iodide]
Male Lewis rats
  Acute Anti-inflammatory Activity in Rats ED50: 0.02 mg/rat

## CCOc1ccc(-c2csc(C=Cc3ccc(N(CC)CC)cc3)[n+]2C)cc1.[I-] [2-(4′-diethylaminostyryl)-4-(4″-ethoxyphenyl)-3-methyl-thiazolium iodide]
Male Lewis rats
  Acute Anti-inflammatory Activity in Rats ED50: 0.001 mg/rat

## CCN(CC)c1ccc(C=Cc2scc(-c3ccc(CC(C)C)cc3)[n+]2C)cc1.[I-] [2-[2-(4-diethylamino-phenyl)vinyl]-4-(4-isobutyl-phenyl)-3-methyl-thiazolium iodide]
Male Lewis rats
  Acute Anti-inflammatory Activity in Rats ED50: 0.0003 mg/rat

## CC[n+]1c(-c2ccc(-c3ccccc3)cc2)csc1C=Cc1ccc(N2CCCC2)cc1.[I-] [4-(4-biphenyl)-3-ethyl-2-[(4-pyrrolidino)styryl]thiazolium iodide]
Male Lewis rats
  Acute Anti-inflammatory Activity in Rats ED50: 0.001 mg/rat

## CC(C)Cc1ccc(-c2csc(C=Cc3ccc(N4CCCC4)cc3)[n+]2C)cc1.[I-] [4-(4-isobutylphenyl)-3-methyl-2-[2-(4-pyrrolidin-1-yl-phenyl)vinyl]-thiazolium iodide]
Male Lewis rats
  Acute Anti-inflammatory Activity in Rats ED50: 0.0004 mg/rat

## CCN(CC)c1ccc(/C=C/c2scc(-c3ccc(OC)cc3)[n+]2C)cc1.[I-] [Formula III]
Phytophthora infestans
  IC90: 2 ppm
Pyrenophora teres
  IC90: 8 ppm
Rhizoctonia solani
  IC90: 8 ppm
Cochliobolus mijabeanus
  IC90: 2 ppm
Fusarium culmorum
  IC90: 31 ppm
Septonia tritici
  IC90: 2 ppm
Alternaria solani
  IC90: 31 ppm
[1]
  IC90: 8 ppm
Botrytis cinerea
  IC90: 2 ppm
Pyricularia oryzae
  IC90: 8 ppm

## CC(C)c1ccc(C(C)C)c(-c2csc(/C=C/c3ccc(N(C)C)cc3)[n+]2C)c1.[I-] [Formula IV, E-2-(N,N′-dimethylaminostyryl)-3-methyl-4-(2,5-diisopropylphenyl)thiazolium iodide]
Phytophthora infestans
  IC90: 8 ppm
Male Lewis rats
  Acute Anti-inflammatory Activity in Rats ED50: 0.0002 mg/rat
Pyrenophora teres
  IC90: 8 ppm
Rhizoctonia solani
  IC90: 8 ppm
Cochliobolus mijabeanus
  IC90: 8 ppm
Fusarium culmorum
  IC90: 125 ppm
Septonia tritici
  IC90: 2 ppm
Alternaria solani
  IC90: 8 ppm
[1]
  IC90: 8 ppm
Botrytis cinerea
  IC90: 2 ppm
Pyricularia oryzae
  IC90: 8 ppm

## Cc1cc(-c2csc(/C=C/c3ccc(N(C)C)cc3)[n+]2C)c(C)c(C)c1C.[I-] [Formula V, E-2-(N,N′-dimethylaminostyryl)-3-methyl-4-(2,3,4,5-tetramethylphenyl)thiazolium iodide]
Phytophthora infestans
  IC90: 2 ppm
Pyrenophora teres
  IC90: 8 ppm
Rhizoctonia solani
  IC90: 8 ppm
Cochliobolus mijabeanus
  IC90: 8 ppm
Fusarium culmorum
  IC90: 31 ppm
Septonia tritici
  IC90: 2 ppm
Alternaria solani
  IC90: 8 ppm
[1]
  IC90: 8 ppm
Botrytis cinerea
  IC90: 2 ppm
Pyricularia oryzae
  IC90: 8 ppm
